{
  "source": "paper PMC8305076",
  "about": "“Comprehensive Evaluation of Biological Effects of Pentathiepins on Various Human Cancer Cell Lines and Insights into Their Mode of Action” (International Journal of Molecular Sciences, 2021)",
  "assay_type_in_all_cases": "cell-based, human",
  "key": {"[1]": {"tested_on": "seven cancer cell lines", "experiment": "cell cycle analysis (summary)", "set-up": "key: no impact (0); weak impact (+); strong impact (++)", "details": "summary grade", "protocol": "The potent cytotoxicity and the potential to inhibit the proliferation of cancer cells accompanied by DNA damage effects raised the question as to whether cell cycle progression might be affected as a result of treatment with pentathiepins.\nCells were harvested by trypsinization, collected in 1.5 mL tubes, and washed twice with PBS by centrifuging for 5 min at 500× g and discarding the supernatant after every step. For fixation, 500 µL of ice-cold ethanol (70%) was added dropwise under vortexing with a subsequent incubation on ice for 30 min. Then, the cells were centrifuged for 10 min at 4000 rpm and 4 °C, the supernatant was removed, and the cells were resuspended in 500 µL of PBS containing 25 µg/mL of PI and 100 µg/mL of RNase. The staining solution was incubated for 30 min, and the cell suspension was measured at λEx/Em = 488/655–730 nm using a MACSquant Analyzer 10 (Miltenyi Biotec, Teterow, Germany)."}, "[2]": {"tested_on": "HAP-1 and HAP-1.KO.GPx1", "experiment": "DCFDA ROS assay with GSH added to the medium", "details": "25 µM pentathiepin plus 3 or 30 µM GSH in medium, 15 min", "protocol": "As thiols are supposedly needed for the activation of the pentathiepins, the influence of additional glutathione added to the culture medium during treatment on the intracellular ROS levels was assessed. In these experiments, 3 or 30 µM of GSH were added to the medium containing 25 µM of pentathiepin or solvent, respectively (Figure 9).\nIn order to quantify intracellular ROS, we performed a flow cytometric assay based on the ROS-sensor 2′,7′-dichlorofluorescein diacetate (DCFDA). […] Per condition, 250,000 cells were seeded in 2 mL of medium per well of a 6-well plate and allowed to adhere overnight. For measurement of acute ROS, the cells were stained with 1 mL of a 20 µM DCFDA-PBS solution for 30 min under standard incubation conditions. […] After removing the solution and washing again with PBS, the cells were detached by using 0.5 mL of a diluted trypsin/EDTA-PBS solution (25%) and harvested with 1 mL of culture medium by carefully rinsing the wells. The cell suspension was transferred to 1.5 mL tubes, centrifuged for 5 min at 500× g, and washed with 1 mL of PBS. After removing the supernatant, each pellet was resuspended in 0.5 mL of PBS for measurement via the MACSquant Analyzer 10 at λEx/Em = 488/530 nm. Relative ROS levels resulting from treatment with pentathiepin were calculated by relating the fluorescence intensity of treated samples to the negative control. For the experiments covering periods of 24 and 48 h, the cells were incubated with the compounds first and stained with DCFDA afterwards. To assess the influence of additional GSH, we included 3 or 30 µM GSH to the medium containing 25 µM of pentathiepin, and the protocol was followed as described."}, "[3]": {"tested_on": "MCF-7", "experiment": "MTT cell viability assay", "protocol": "Distinct MTT cell viability and crystal violet cell proliferation assays were performed to assess the cytotoxicity of the compounds 1–6 on 14 human cancer cell lines. In the viability assay, cells with intact mitochondria and thus active dehydrogenases are competent to convert MTT to the corresponding insoluble formazan. The formazan can be photometrically detected after solubilization and allows for indirect conclusions about the viability of the cells as an IC50 value. In the crystal violet assay, cells are stained by the binding of the dye to the chromatin, thus allowing for a quantification of biomass that remains adherent after a treatment in comparison with a control after a specific time. Potency is defined as the growth inhibitory concentration 50% (GI50).\nIn addition to performing the cell viability assay under normoxia (19% atmospheric oxygen), incubations were also conducted under hypoxic conditions, i.e., atmospheric oxygen levels of 1% during the treatment for 48 h. Hypoxia is a favorable condition of the tumor microenvironment that is connected with poor outcome. Therefore, the low oxygen condition mimics better the tumor environment. The biological effect of the pentathiepins under this condition provides insight into their dependency for oxygen, which has been postulated a key component in the proposed mechanism of action (Figure 3). Consistent with the proposed mechanism of action for five of the compounds, potency decreased under hypoxic conditions; in fact for 6, the half-maximal inhibitory concentration exceeded the highest tested concentration of 10 µM in four cell lines (Figure 6, Table S3). […] In contrast to the other compounds, in some cell lines, the cytotoxic effects of 1 were more pronounced under oxygen-reduced incubation conditions (Figure 6), indicating a tangential role of oxygen availability for this pentathiepin. Especially for the breast cancer cell line MCF-7, the cytotoxicity increased substantially, indicated by a decrease of the IC50 from >10.0 µM to about 1.0 µM.\nThe effect of the pentathiepins on the viability of the cell lines was assessed via an MTT assay, performed as previously described. Healthy and viable cells convert the yellow soluble 3-(4,5-dimethylthiazol-2-yl)-2,5-diphenyltetrazolium bromide to the insoluble purple corresponding formazan, which can be spectrophotometrically measured. For this assay, 5000 cells (1 250 for LCLC-103H) in 0.1 mL of medium were seeded per well of a 96-well plate and incubated at standard conditions for 24 h prior to treatment. A serial dilution of the test compounds was prepared in medium, covering final concentrations from 10.0 to 0.04 µM, and 0.1 mL of the working solution was added to each well in triplicate. After 48 h, 20 µL of a 2.5 mg/mL MTT in PBS solution was pipetted into each well and further incubated for 4 h at standard conditions. Thereafter, medium was replaced with 50 µL DMSO, and the plates were put on a shaker for 5 min and subsequently read at λ = 570 nm, with a SpectraMax 384plus (Molecular Devices, Sunnyvale, CA, USA). The cell viabilities of the treatment conditions were calculated in relation to a solvent control sample. The absolute IC50 was calculated via nonlinear regression followed by interpolation of the dose–response graphs in Prism 7 (GraphPad, San Diego, CA, USA). The IC90 was derived from the IC50 by using the slope factor of the dose–response graph with the tool QuickCalcs from GraphPad (GraphPad Software, San Diego, CA, USA)."}, "[4]": {"tested_on": "seven cancer cell lines", "experiment": "DCFDA flow cytometric ROS assay, acute", "details": "25 µM, 15 min, vs solvent control"}, "[5]": {"details": "Homo sapiens, MCF7, 48 h, hypoxic (1% O2), read-out: IC50 MTT-H mean"}, "[6]": {"details": "Homo sapiens, MCF7, 48 h, normoxic (19% O2), read-out: IC50 MTT-N mean"}},
  "note": "Read-outs that look alike come from different tables or passages of the source.",
  "data": [
    {"compound": "CCOc1c2c(c3cnc4[nH]c(-c5ccc(OC)cc5)cc4n13)SSSSS2", "note": "[Compound 1, 11-Ethoxy-2-(4-methoxyphenyl)-3H-[1,2,3,4,5]pentathiepino[6′,7′:3,4]pyrrolo[1,2-a]pyrrolo[2,3-e]pyrazine]", "values": [
      {"measurement": "G0/G1 arrest", "setting": "[1]", "result": "+"},
      {"measurement": "G2/M arrest", "setting": "[1]", "result": 0},
      {"measurement": "effect of added GSH on intracellular ROS", "setting": "[2]", "result": "No change was observed"},
      {"measurement": "IC50", "setting": "[3]; 48 h, hypoxic (1% O2), read-out: IC50 MTT-H mean", "result": 0.97, "unit": "µM"},
      {"measurement": "IC50", "setting": "[3]; [5]", "result": "~1", "unit": "µM"},
      {"measurement": "IC50", "setting": "[3]; [6]", "result": "> 10", "unit": "µM"},
      {"measurement": "intracellular ROS levels", "setting": "[4]", "result": "did not change the intracellular ROS levels in any of the cell lines"}
    ]},
    {"compound": "CCOc1c2c(c3ccc(C(=O)N4CCCCC4)cn13)SSSSS2", "note": "[Compound 2, (6-Ethoxy-[1,2,3,4,5]pentathiepino[6,7-a]indolizin-9-yl)(piperidinyl)methanone]", "values": [
      {"measurement": "G0/G1 arrest", "setting": "[1]", "result": 0},
      {"measurement": "G2/M arrest", "setting": "[1]", "result": "+"},
      {"measurement": "effect of added GSH on intracellular ROS", "setting": "[2]", "result": "roughly doubling the effect of the compound alone"},
      {"measurement": "IC50", "setting": "[3]; [5]", "result": "> 10", "unit": "µM"},
      {"measurement": "IC50", "setting": "[3]; [6]", "result": 3.04, "unit": "µM"},
      {"measurement": "intracellular ROS levels", "setting": "[4]", "result": "burst of ROS in all cell lines"}
    ]},
    {"compound": "CCOc1c2c(c3ccc(C(=O)N4CCOCC4)cn13)SSSSS2", "note": "[Compound 3, (6-Ethoxy-[1,2,3,4,5]pentathiepino[6,7-a]indolizin-9-yl)(morpholino)methanone]", "values": [
      {"measurement": "G0/G1 arrest", "setting": "[1]", "result": 0},
      {"measurement": "G2/M arrest", "setting": "[1]", "result": "+"},
      {"measurement": "effect of added GSH on intracellular ROS", "setting": "[2]", "result": "tendency toward decreased oxidative stress"},
      {"measurement": "IC50", "setting": "[3]; [5]", "result": 3.56, "unit": "µM"},
      {"measurement": "IC50", "setting": "[3]; [6]", "result": 1.68, "unit": "µM"},
      {"measurement": "intracellular ROS levels", "setting": "[4]", "result": "burst of ROS in all cell lines"}
    ]},
    {"compound": "CCOc1c2c(c3ccc(C(=O)N(CC)CC)cn13)SSSSS2", "note": "[Compound 4, 6-Ethoxy-N,N’-diethyl-[1,2,3,4,5]pentathiepino[6,7-a]indolizine-9-carboxamide]", "values": [
      {"measurement": "G0/G1 arrest", "setting": "[1]", "result": 0},
      {"measurement": "G2/M arrest", "setting": "[1]", "result": "+"},
      {"measurement": "effect of added GSH on intracellular ROS", "setting": "[2]", "result": "an ascending trend was observed but not determined as statistically significant"},
      {"measurement": "IC50", "setting": "[3]; [5]", "result": 3.56, "unit": "µM"},
      {"measurement": "IC50", "setting": "[3]; [6]", "result": 3.21, "unit": "µM"},
      {"measurement": "intracellular ROS levels", "setting": "[4]", "result": "burst of ROS in all cell lines"}
    ]},
    {"compound": "CCOc1c2c(c3ccc(C(=O)N4CCN(C(=O)c5ccc(F)cc5)CC4)cn13)SSSSS2", "note": "[Compound 5, (6-Ethoxy-[1,2,3,4,5]pentathiepino[6,7-a]indolizin-9-yl)(4-(4-fluorobenzoyl)piperazinyl)methanone]", "values": [
      {"measurement": "G0/G1 arrest", "setting": "[1]", "result": 0},
      {"measurement": "G2/M arrest", "setting": "[1]", "result": "+"},
      {"measurement": "effect of added GSH on intracellular ROS", "setting": "[2]", "result": "roughly doubling the effect of the compound alone"},
      {"measurement": "IC50", "setting": "[3]; [5]", "result": 3.01, "unit": "µM"},
      {"measurement": "IC50", "setting": "[3]; [6]", "result": 1.64, "unit": "µM"},
      {"measurement": "intracellular ROS levels", "setting": "[4]", "result": "burst of ROS in all cell lines"}
    ]},
    {"compound": "CCOc1c2c(c3ccc(C(=O)N4CCN(S(=O)(=O)c5ccc(C)cc5)CC4)cn13)SSSSS2", "note": "[Compound 6, (6-Ethoxy-[1,2,3,4,5]pentathiepino[6,7-a]indolizin-9-yl)(4-tosylpiperazinyl)methanone]", "values": [
      {"measurement": "G0/G1 arrest", "setting": "[1]", "result": "+"},
      {"measurement": "G2/M arrest", "setting": "[1]", "result": 0},
      {"measurement": "effect of added GSH on intracellular ROS", "setting": "[2]", "result": "tendency toward decreased oxidative stress"},
      {"measurement": "IC50", "setting": "[3]; [5]", "result": "> 10", "unit": "µM"},
      {"measurement": "IC50", "setting": "[3]; [6]", "result": 3.99, "unit": "µM"},
      {"measurement": "intracellular ROS levels", "setting": "[4]", "result": "only in three of the panel"}
    ]}
  ]
}
